According to the supplement of paper PMC10307832:

Key:
Test in all cases: relative viability (nuclei count vs DMSO), 5 days (fraction); higher = more cells survive
AZD5582 + Pemetrexed = compound: C[C@@H](C(=O)N[C@@H](C1CCCCC1)C(=O)N2CCC[C@H]2C(=O)N[C@@H]3[C@@H](CC4=CC=CC=C34)OCC#CC#CCO[C@@H]5CC6=CC=CC=C6[C@@H]5NC(=O)[C@@H]7CCCN7C(=O)[C@H](C8CCCCC8)NC(=O)[C@H](C)NC)NC [AZD5582] + Nc1nc2[nH]cc(CCc3ccc(C(=O)N[C@@H](CCC(=O)O)C(=O)O)cc3)c2c(=O)[nH]1 [Pemetrexed] (partner 0.2 µM)
Summary of the method: (§1)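 Each reported value is a median over duplicate plates. It expresses relative viability: treated-well nuclei count divided by vehicle-well nuclei count. Lung cancer cell lines in 1536-well plates were dosed by pin tool a day after seeding, alone with one drug or with a fixed anchor-drug dose plus five library-drug doses (not always all listed) in √10 steps, and nuclei were counted after 5 days.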

Temozolomide + OSI-027 = compound: Cn1nnc2c(C(N)=O)ncn2c1=O [Temozolomide] + COc1cccc2cc(-c3nc([C@H]4CC[C@H](C(=O)O)CC4)n4ncnc(N)c34)[nH]c12 [OSI-027] (partner 0.5 µM)
Summary of the method: as §1

[1] = compound: Cn1nnc2c(C(N)=O)ncn2c1=O [Temozolomide] + Nc1ncn([C@H]2C[C@H](O)[C@@H](CO)O2)c(=O)n1 [Decitabine] (partner 2 µM)
Summary of the method: as §1

Temozolomide + Olaparib = compound: Cn1nnc2c(C(N)=O)ncn2c1=O [Temozolomide] + O=C(c1cc(Cc2n[nH]c(=O)c3ccccc23)ccc1F)N1CCN(C(=O)C2CC2)CC1 [Olaparib] (partner 8 µM)
Summary of the method: as §1

Cell Line	relative viability (AZD5582 + Pemetrexed; first compound 0.001581 µM)	relative viability (AZD5582 + Pemetrexed; first compound 0.005 µM)	relative viability (AZD5582 + Pemetrexed; first compound 0.01581 µM)	relative viability (AZD5582 + Pemetrexed; first compound 0.05 µM)	relative viability (Temozolomide + OSI-027; first compound 0.2 µM)	relative viability (Temozolomide + OSI-027; first compound 0.6325 µM)	relative viability (Temozolomide + OSI-027; first compound 2 µM)	relative viability (Temozolomide + OSI-027; first compound 6.325 µM)	relative viability (Temozolomide + OSI-027; first compound 20 µM)	relative viability ([1]; first compound 0.2 µM)	relative viability ([1]; first compound 0.6325 µM)	relative viability ([1]; first compound 2 µM)	relative viability ([1]; first compound 6.325 µM)	relative viability ([1]; first compound 20 µM)	relative viability (Temozolomide + Olaparib; first compound 0.2 µM)	relative viability (Temozolomide + Olaparib; first compound 0.6325 µM)	relative viability (Temozolomide + Olaparib; first compound 2 µM)	relative viability (Temozolomide + Olaparib; first compound 6.325 µM)	relative viability (Temozolomide + Olaparib; first compound 20 µM)
HCC-366	0.119	0.155	0.15	0.152	0.865	0.856	1.03	0.879	0.921	0.297	0.386	0.384	0.304	0.337	0.413	0.344	0.318	0.311	0.17
HCC-827	0.272	0.273	0.283	0.205	0.45	0.756	0.8	0.73	0.133	0.228	0.357	0.339	0.34	0.169	0.749	0.645	0.665	0.432	0.107
HOP-62	0.262	0.312	0.345	0.371	1.06	0.854	0.846	0.773	0.908	0.214	0.247	0.226	0.19	0.188	0.407	0.31	0.429	0.277	0.129
IA-LM															0.908	0.744	0.86	0.759	0.694
LC-2-ad	0.283	0.272	0.28	0.278	0.782	0.917	0.926	0.825	0.737	0.795	0.766	0.775	0.874	0.665	0.671	0.72	0.696	0.591	0.468
LCLC-97TM1	0.185	0.205	0.16	0.16	0.554	0.525	0.571	0.486	0.524	0.232	0.245	0.223	0.216	0.253	0.512	0.447	0.436	0.238	0.226
LCLC-103H	0.386	0.426	0.443	0.352	0.454	0.416	0.481	0.448	0.485	0.779	0.757	0.743	0.764	0.599	0.82	0.79	0.85	0.731	0.617
LK-2	0.199	0.25		0.256	0.2	0.218	0.214	0.168	0.196	0.318	0.284	0.263	0.225	0.211	0.736	0.702	0.593	0.355	0.257
LOU-NH91	0.341	0.367	0.367	0.408	0.494	0.729	0.781	0.756	0.493	0.699	0.801	0.849	0.815	0.634	0.8	0.936	0.913	0.863	0.547
LU99A	0.169	0.186	0.168	0.185	0.27	0.317	0.321	0.283	0.306	0.88	0.833	0.917	0.848	0.776	0.285	0.258	0.295	0.155	0.119
LXF-289	0.798	0.815	0.872	0.797	0.772	0.863	0.927	0.76	0.63	0.388	0.403	0.367	0.373	0.391	1.11	1.13	1.03	0.951	0.774
NCI-H23	0.578	0.514	0.55	0.455	0.547	0.682	0.565	0.59	0.461	0.303	0.309	0.293	0.292	0.327	0.345	0.32	0.382	0.266	0.22
NCI-H322M	0.705	0.732	0.659	0.785		0.525	0.569	0.54	0.433	0.619	0.704	0.697	0.717	0.576	0.671	0.734	0.727	0.692	0.555
NCI-H358	0.178	0.171	0.179	0.17	0.437	0.795	0.697	0.689	0.583	0.19	0.224	0.223	0.228	0.207	0.706	0.732	0.631	0.545	0.351
NCI-H441	0.253	0.314	0.292	0.253	0.597	0.85	0.846	0.523	0.651	0.255	0.279	0.226	0.278	0.254	0.7	0.569	0.603	0.527	0.337
NCI-H727					0.638	0.779	0.712	0.493	0.534		0.876	0.938	0.848	0.838		0.681	0.791	0.516	0.55
NCI-H1299															1	0.99	0.957	0.923	0.967
NCI-H1563	0.682	0.742	0.586	0.861	0.781	0.817	0.77	0.789	0.796										
NCI-H1623						0.462	0.471	0.388	0.297										
NCI-H2228	0.281	0.285	0.305	0.21	0.557	0.56	0.602	0.583	0.727						0.95	0.671	0.363	0.697	0.479
